Earlier results in US20210395200A1, “SYNTHETIC PROCESSES FOR THE PRODUCTION OF 1-((3S,4R)-4-(2,6-DIFLUORO-4-METHOXYPHENYL)-2-OXOPYRROLIDIN-3-YL)-3-PHENYLUREA” (BRISTOL-MYERS SQUIBB COMPANY, priority 2018, published 2021).

Biological target: T1, FPR2 (Homo sapiens, UniProt P25090)
T1 sequence (P25090 1-351): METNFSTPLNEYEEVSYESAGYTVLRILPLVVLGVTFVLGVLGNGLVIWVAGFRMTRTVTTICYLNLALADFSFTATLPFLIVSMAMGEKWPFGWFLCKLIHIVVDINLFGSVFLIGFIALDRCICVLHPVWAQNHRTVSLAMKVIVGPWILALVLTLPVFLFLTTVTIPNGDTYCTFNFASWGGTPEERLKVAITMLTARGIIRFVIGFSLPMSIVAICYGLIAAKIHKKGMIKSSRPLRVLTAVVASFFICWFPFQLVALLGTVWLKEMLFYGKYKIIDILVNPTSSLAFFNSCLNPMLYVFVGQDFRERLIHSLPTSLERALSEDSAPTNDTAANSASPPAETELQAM
Conditions: background statement referring to U.S. Pat. No. 9,822,069

In the case of COc1cc(F)c([C@@H]2CNC(=O)[C@H]2NC(=O)Nc2ccccc2)c(F)c1 [Compound 1, 1-((3S,4R)-4-(2,6-difluoro-4-methoxyphenyl)-2-oxopyrrolidin-3-yl)-3-phenylurea], the FPR2 agonist activity is listed as “robust FPR2 agonist activity”.
